Reference: patent US6998395B2, “Administration of estradiol metabolites for the treatment or prevention of obesity, metabolic syndrome, diabetes, and vascular and renal disorders” (University of Pittsburg,, priority 2001, dated 2006)

Assays:
Type in all cases: in vivo, rat
female ZSF1 rats = assay: Treatment of ovarectomized female ZSF1 rats for 24 weeks with 2-hydroxyestradiol; conditions: 10 ug/kg/hr
Description: Male ZSF1 rats were treated continuously for 24 weeks with polyethylene glycol 400 (PEG 400) (Sigma, St. Louis, Mo.) or one of three doses of 2-hydroxyestradiol or 2-methoxyestradiol (Steraloids, Inc. Newport, R.I.) dissolved in PEG 400. The three doses were 1 ug/kg/hr, 3 ug/kg/hr or 10 ug/kg/hr. Female ZSF1 rats were treated continuously for 24 weeks with either PEG 400 or 10 ug/kg/hr of 2-hydroxyestradiol. Female ZSF1 rats were ovarectomized at 11 weeks of age. For all animals, both male and female, treatments with estradiol metabolites were begun at approximately 13 weeks of age. […]
Metabolic cages (Nalgene, Rochester, N.Y.) were used in this study. […] The first 24-hour period was considered an acclimation period, while food and fluid intake and urine volume were measured during the second 24-hour period. […] The blood was further analyzed to assess creatinine clearance, fractional sodium excretion, fractional potassium excretion and fractional albumin excretion. In addition, the following criteria were also assessed while the animals were in the metabolic cages: body weight, feed intake, water intake, urine output, urinary protein, urinary albumin, urinary glucose, urinary sodium and urinary potassium. […]
(§1) Food intake was measured by filling the food containers with standard powder laboratory food up to a total weight of 250 grams. […]

male ZSF1 rats [1] = assay: Treatment of male ZSF1 rats for 24 weeks with 2-hydroxyestradiol or 2-methoxyestradiol; conditions: 10 ug/kg/hr, 28 weeks, versus control animals
[2] = test system: mesenteric vascular bed of male obese ZSF1 rats; assay: Mesenteric vascular reactivity to acetylcholine and sodium nitroprusside after 26 weeks of treatment; conditions: 10 ug/kg/hour s.c., versus control; for Vasodilation induced by sodium nitroprusside (mesenteric vascular resistance, FIG. 3): sodium nitroprusside 0.5, 1.5, 5.0 ug/min
Text: After 26 weeks of treatment, animals were anesthetized and instrumented for assessment of heart performance, renal hemodynamics and mesenteric vascular reactivity. A PE-50 catheter was advanced via the carotid artery into the left ventricle and connected to a heart-performance analyzer (Micro-Med, Inc., Louisville, Ky.) for continuous measurement of ten time/pressure variables. A PE-50 catheter was inserted into the femoral artery and connected to a blood pressure analyzer (Micro-Med, Inc.) for measurement of arterial blood pressure. A PE-10 catheter was inserted into the left ureter for urine collection, and a flow probe (Transonic Systems, Inc., Ithaca, N.Y.) was placed on the left renal artery for determination of renal blood flow. An infusion of ^14C-inulin (0.035 uCi/20 ul saline/min) was initiated, and after 60 minutes, two 30-minute clearance periods were conducted. A mid-point blood sample (300 ul) for measurement of radioactivity was collected. Plasma and urine ^14C-inulin radioactivity were measured, and renal clearance of ^14C-inulin was calculated. A flow probe was placed on the mesenteric artery for determination of mesenteric blood flow, and a 32-gauge needle was inserted into the mesenteric artery and attached to a Y-connector for dual intramesenteric artery infusions (25 ul/min each). Angiotensin II (30 ng/min) plus methoxamine (3 ug/min) was delivered via one intramesenteric artery infusion line into the mesenteric vascular bed to the mesenteric vascular bed. […] Vascular resistances were calculated as arterial blood pressure divided by blood flow.
All values refer to means±SEM for 9 to 10 animals in each group. Statistical significance was calculated using either an unpaired Student's t-test or a 2-factor analysis of variance (repeated measures) followed by a Fisher's Least Significance Difference test if appropriate. […]

male obese ZSF1 rats = assay: Heart performance, arterial blood pressure and renal hemodynamics in anesthetized ZSF1 rats after 26 weeks of treatment; conditions: for Glomerular Filtration Rate / Renal Blood Flow / Renal Vascular Resistance: 26 weeks (approximately 6 months) of treatment; for Glomerular Filtration Rate: 14C-inulin clearance
Text: After 26 weeks of treatment, animals were anesthetized and instrumented for assessment of heart performance, renal hemodynamics and mesenteric vascular reactivity. A PE-50 catheter was advanced via the carotid artery into the left ventricle and connected to a heart-performance analyzer (Micro-Med, Inc., Louisville, Ky.) for continuous measurement of ten time/pressure variables. A PE-50 catheter was inserted into the femoral artery and connected to a blood pressure analyzer (Micro-Med, Inc.) for measurement of arterial blood pressure. A PE-10 catheter was inserted into the left ureter for urine collection, and a flow probe (Transonic Systems, Inc., Ithaca, N.Y.) was placed on the left renal artery for determination of renal blood flow. An infusion of ^14C-inulin (0.035 uCi/20 ul saline/min) was initiated, and after 60 minutes, two 30-minute clearance periods were conducted. A mid-point blood sample (300 ul) for measurement of radioactivity was collected. Plasma and urine ^14C-inulin radioactivity were measured, and renal clearance of ^14C-inulin was calculated. A flow probe was placed on the mesenteric artery for determination of mesenteric blood flow, and a 32-gauge needle was inserted into the mesenteric artery and attached to a Y-connector for dual intramesenteric artery infusions (25 ul/min each). Angiotensin II (30 ng/min) plus methoxamine (3 ug/min) was delivered via one intramesenteric artery infusion line into the mesenteric vascular bed to the mesenteric vascular bed. Next, vascular responses to increasing doses of acetylcholine (0.3, 1.0 and 3.0 ug/min, 5 minutes per dose) and sodium nitroprusside (0.5, 1.5 and 5.0 ug/min, 5 minutes per dose) were elicited by infusing these agents via the other intramesenteric artery infusion line into the mesenteric vascular bed. Vascular resistances were calculated as arterial blood pressure divided by blood flow.
All values refer to means±SEM for 9 to 10 animals in each group. Statistical significance was calculated using either an unpaired Student's t-test or a 2-factor analysis of variance (repeated measures) followed by a Fisher's Least Significance Difference test if appropriate. The criterion of significance was p<0.05.

male ZSF1 rats [3] = assay: Treatment of male ZSF1 rats for 24 weeks with 2-hydroxyestradiol or 2-methoxyestradiol
Description: Male ZSF1 rats were treated continuously for 24 weeks with polyethylene glycol 400 (PEG 400) (Sigma, St. Louis, Mo.) or one of three doses of 2-hydroxyestradiol or 2-methoxyestradiol (Steraloids, Inc. Newport, R.I.) dissolved in PEG 400. The three doses were 1 ug/kg/hr, 3 ug/kg/hr or 10 ug/kg/hr. Female ZSF1 rats were treated continuously for 24 weeks with either PEG 400 or 10 ug/kg/hr of 2-hydroxyestradiol. Female ZSF1 rats were ovarectomized at 11 weeks of age. For all animals, both male and female, treatments with estradiol metabolites were begun at approximately 13 weeks of age. One group of male ZSF1 rats received only PEG 400 but were pair fed to receive the same daily food intake as the male ZSF1 rats treated with 10 ug/kg/hr 2-hydroxyestradiol. Treatment was administered via subcutaneous implanted pumps (Alzet Osmotic Pump, Model 2ML4, Alza Corporation, Palo Alto, Calif.). The study was designed to evaluate treatment effects and dose responses on body weight, food intake, water intake, urine output, urinary protein excretion, cholesterol levels, plasma glucose levels and glucose tolerance.
Stock solutions of both 2-hydroxyestradiol and 2-methoxyestradiol were made by dissolving the required amount of estradiol metabolite in PEG 400. This solution was diluted in PEG 400 to deliver the three required doses based on the mean weight of each treatment group and the stated volume delivery rate for each lot of osmotic pumps in the study. This stock solution was prepared fresh prior to each osmotic pump implantation in each group. The control solution of PEG 400 was created in the same manner.
All treatments were administered via a subcutaneously implanted osmotic pump (Alzet Osmotic Pump, Model 2ML4, Alza Corporation, Palo Alto, Calif.). Each lot of osmotic pumps were delivered with the stated rate of delivery and formulation concentrations were adjusted to ensure delivery of 1,3, or 10 ug/kg/hr based on the stated rate of delivery of each lot. Doses were adjusted for the mean weight of the animals in the treatment group obtained 24 hours prior to implantation of the osmotic minipump.
Animals were anesthetized prior to implantation of an osmotic minipump with halothane and oxygen (2.5 liter/min) delivered by a Fluotec 3 anesthetic device (Ohmeda, Steeton, UK). After lightly anesthetizing each animal, implantation was accomplished by shaving the back and creating a half-inch incision in which to insert the osmotic minipump. The incision was then closed with wound clips that were removed in seven days. Osmotic minipumps were replaced at 33-day intervals and each time a particular animal received an osmotic minipump, the insertion point was changed.
Metabolic cages (Nalgene, Rochester, N.Y.) were used in this study. Animals were placed in metabolic cages for 48 hours. The first 24-hour period was considered an acclimation period, while food and fluid intake and urine volume were measured during the second 24-hour period. Additionally, a tail vein sample was obtained to measure blood glucose, sodium, potassium, albumin and creatinine. The blood was further analyzed to assess creatinine clearance, fractional sodium excretion, fractional potassium excretion and fractional albumin excretion. In addition, the following criteria were also assessed while the animals were in the metabolic cages: body weight, feed intake, water intake, urine output, urinary protein, urinary albumin, urinary glucose, urinary sodium and urinary potassium.
Body weights were assessed 24 hours before pump implantation and those weights were used to calculate the dosage of drug or vehicle to be given to each animal based on the mean body weight of each group. Animals were weighed approximately once every two months prior to being placed in a metabolic cage.
as §1

[4] = anesthetized, listed as 2-Hydroxyestradiol
[5] = Table 2, after approximately 6 months of treatment
[6] = male, 10 ug/kg/hr, 24 weeks, versus control animals
[7] = male, 1, 3 or 10 ug/kg/hr s.c. osmotic pump, 24 weeks, versus control

C[C@]12CC[C@@H]3c4cc(O)c(O)cc4CC[C@H]3[C@@H]1CC[C@@H]2O [2-hydroxyestradiol, estra-1,3,5 (10)-triene-2,3,1 7-triol (17β)]
Leptin levels (FIG. 11) (female ZSF1 rats; 20 weeks, versus control animals): reduced
Blood urea nitrogen (FIG. 10) (female ZSF1 rats; 24 weeks, versus control groups): lower
Glycated hemoglobin (HbA1c) (FIG. 14) (male ZSF1 rats [1]): lower
Decreases in mesenteric vascular resistance induced by acetylcholine (FIG. 2) ([2]; acetylcholine 0.3, 1.0, 3.0 ug/min): greater
Vasodilation induced by sodium nitroprusside (mesenteric vascular resistance, FIG. 3) [2]: non-significant effect
Vasodilation induced by sodium nitroprusside (mesenteric vascular resistance, FIG. 3) ([2]; listed as 2-Hydroxyestradiol): only slightly (non-significantly) enhanced
Mean arterial blood pressure (male obese ZSF1 rats; 10 ug/kg/hour s.c., 26 weeks of treatment, anesthetized): 122±5 mm Hg
Effects on heart performance in situ (male obese ZSF1 rats; 10 ug/kg/hour s.c., chronic treatment (26 weeks), versus control): no effects
Glomerular Filtration Rate (male obese ZSF1 rats): did not affect
Glomerular Filtration Rate (male obese ZSF1 rats; listed as 2-Hydroxyestradiol): 0.76 ± 0.09 ml/min/gram kidney
Renal Blood Flow (male obese ZSF1 rats; anesthetized): did not affect
Renal Vascular Resistance (male obese ZSF1 rats; anesthetized): did not affect
Renal Blood Flow (male obese ZSF1 rats; [4]): 3.3 ± 0.6 ml/min/gram kidney
Renal Vascular Resistance (male obese ZSF1 rats; [4]): 42 ± 7 mm Hg/ml/min/gram kidney
+dP/dtmax (male obese ZSF1 rats; [5]): 11,805 ± 943 mm Hg/sec
+dP/dtmax/Ventricular Peak Systolic Pressure (male obese ZSF1 rats; [5]): 69.9 ± 2.5 s⁻¹
Duration of Contraction (male obese ZSF1 rats; [5]): 38.8 ± 3.5 ms
Duration of Relaxation (male obese ZSF1 rats; [5]): 96.3 ± 6.3 ms
Half-Time of Ventricular Relaxation (male obese ZSF1 rats; [5]): 49.1 ± 3.6 ms
Heart Rate (male obese ZSF1 rats; [5]): 352 ± 9 beats/min
Heart Rate × Ventricular Peak Systolic Pressure (male obese ZSF1 rats; [5]): 60,949 ± 4,237 [beats/min] × mm Hg
Mean Blood Pressure (male obese ZSF1 rats; [5]): 122 ± 5 mm Hg
Time Constant of Ventricular Relaxation (male obese ZSF1 rats; [5]): 16.7 ± 1.9 ms
Ventricular End Diastolic Pressure (male obese ZSF1 rats; [5]): 4.2 ± 1.0 mm Hg
Ventricular Minimum Diastolic Pressure (male obese ZSF1 rats; [5]): −1.4 ± 1.1 mm Hg
Ventricular Peak Systolic Pressure (male obese ZSF1 rats; [5]): 172 ± 9 mm Hg
−dP/dtmax (male obese ZSF1 rats; [5]): 6853 ± 382 mm Hg/sec
Leptin levels (FIG. 11) (male ZSF1 rats [3]; male, 10 ug/kg/hr, 20 weeks, versus control animals): clearly reduced
24-hour urine output (FIG. 13) (male ZSF1 rats [3]; [6]): lower
24-hour water intake (FIG. 12) (male ZSF1 rats [3]; [6]): lower
Blood urea nitrogen (FIG. 10) (male ZSF1 rats [3]; male, 10 ug/kg/hr, 24 weeks, versus control groups): lower
Plasma level of glucose after administration of 2 g/4 ml/kg glucose (oral glucose tolerance test, FIGS. 8 and 9) (male ZSF1 rats [3]; male, 10 ug/kg/hr, treated for 14 to 15 weeks, versus control groups): lower
Body weight gain (FIGS. 4 and 5) (male ZSF1 rats [3]; [7]): less body weight gain
Food intake (male ZSF1 rats [3]; [7]): lower food intake
Urinary protein excretion (FIG. 7) (male ZSF1 rats [3]; male, 1, 3 or 10 ug/kg/hr, after 24 weeks of treatment, versus control animals): lower
